Reference: ChEMBL document CHEMBL1817609, “SAR studies of 4-pyridyl heterocyclic anilines that selectively induce autophagic cell death in von Hippel-Lindau-deficient renal cell carcinoma cells” (Bioorg Med Chem, 2011)

How the values were obtained:
[1] = Growth inhibition of human RCC4 cells after 4 days by XTT assay; format: functional, cell-based; details: RCC4, 96 h
[2] = Growth inhibition of human RCC4/VHL cells after 4 days by XTT assay; format: functional, cell-based; details: 96 h
[3] = Selectivity ratio IC50 for human RCC4/VHL cells to IC50 for human RCC4 cells; format: functional

Row | SMILES | IC50 ([1]; read-out: IC50) [µM] | IC50 ([1]; read-out: pIC50 (converted)) [µM] | IC50 [2] [µM] | Ratio IC50 [3]
1 | Cc1cccc(Nc2nc(-c3ccncc3-c3ccccc3)cs2)c1 | 11.6 | 11.7 | 33.2 | 2.9
2 | Cc1cccc(Nc2nc(-c3ccnc(F)c3)cs2)c1 |  | 4.57 |  | 
3 | Cc1cccc(Nc2nc(-c3ccncc3-c3ccc(S(C)(=O)=O)cc3)cs2)c1 | 1.6 | 1.62 | 13.4 | 8.4
4 | Cc1cccc(Nc2nccc(-c3ccncc3)n2)c1 | 6.5 | 6.61 | 8.6 | 1.3
5 | Cc1cccc(Nc2nc(-c3ccnc(-c4ccccc4)c3)cs2)c1 | 19.1 | 19.5 | 40 | 2.1
6 | Cc1cccc(Nc2nc(-c3ccncc3-c3cn(Cc4ccccc4)nn3)cs2)c1 | > 40 | 40.7 | > 40 | 
7 | Cc1cccc(Nc2nc(-c3ccnc(-c4cn(Cc5ccccc5)nn4)c3)cs2)c1 | 2.1 | 2.14 | 14 | 6.7
8 | Cc1cccc(Nc2nc(-c3ccnc(-c4cccc(F)n4)c3)cs2)c1 | > 40 | > 40 | > 40 | 
9 | Cc1cccc(Nc2nc(-c3cc(-c4ccccc4)nc4ccccc34)cs2)c1 | 25.4 | 25.7 | > 40 | >1.6
10 | Cc1cccc(Nc2nc(-c3ccncc3)c(CCCN3CCOCC3)s2)c1 |  | 5.89 |  | 
11 | Cc1cccc(Nc2nc(-c3ccnc(N4CCN(C)CC4)c3)cs2)c1 | 11.5 | 11.7 | 31.6 | 2.8
12 | Cc1cccc(Nc2nc(-c3ccncc3)c(CN3CCCCC3)s2)c1 |  | 13.2 |  | 
13 | Brc1cccc(Nc2nc(-c3ccncc3)cs2)c1 |  | 40.7 |  | 
14 | C#Cc1cc(-c2csc(Nc3cccc(C)c3)n2)ccn1 |  | 18.2 |  | 
15 | Clc1cccc(Nc2nc(-c3ccncc3)cs2)c1 |  | 3.02 |  | 
16 | Cc1cccc(Nc2nc(-c3ccncc3)c(C)s2)c1 |  | 10 |  | 
17 | Cc1cccc(Nc2nc(-c3cc(Cl)nc(Cl)c3)cs2)c1 |  | 15.1 |  | 
18 | c1ccc(Nc2nc(-c3ccncc3)cs2)cc1 | 7 | 7.08 | > 70 | >10
19 | Fc1ccc(Nc2nc(-c3ccncc3)cs2)cc1 |  | 6.03 |  | 
20 | COc1ccc(Nc2nc(-c3ccncc3)cs2)cc1OC |  | 24.5 |  | 
21 | CCN(c1cccc(C)c1)c1nc(-c2ccncc2)cs1 |  | 40.7 |  | 
22 | Oc1ccc(Nc2nc(-c3ccncc3)cs2)cc1 |  | 5.37 |  | 
23 | CN(C)CCOc1ccc(Nc2nc(-c3ccncc3)cs2)cc1 |  | 60.3 |  | 
24 | Cc1cccc(Nc2nc(-c3ccnc(-c4cncnc4)c3)cs2)c1 | 26.4 | 26.9 | 37 | 1.4
25 | Cc1cccc(Nc2nc(-c3ccncc3)co2)c1 | > 40 | 40.7 | > 40 | 
26 | Oc1cccc(Nc2nc(-c3ccncc3)cs2)c1 |  | 28.8 |  | 

Row | SMILES | IC50 ([1]; read-out: IC50) [µM] | IC50 ([1]; read-out: pIC50 (converted)) [µM] | IC50 [2] [µM] | Ratio IC50 [3]
27 | c1cc(-c2csc(Nc3ccc4c(c3)CCC4)n2)ccn1 |  | 2.04 |  | 
28 | Cc1cccc(Nc2nc(-c3ccncc3)ns2)c1 | 24.8 | 25.1 | > 40 | >1.6
29 | Cc1cccc(Nc2nc(-c3ccnc(OCCN4CCOCC4)c3)cs2)c1 | 7 | 7.08 | 21.1 | 3
30 | Cc1cccc(Nc2nc(-c3ccncc3Br)cs2)c1 |  | 3.98 |  | 
31 | COc1ccc(Nc2nc(-c3ccncc3)cs2)cc1 |  | 14.1 |  | 
32 | CCc1cccc(Nc2nc(-c3ccncc3)cs2)c1 |  | 2.51 |  | 
33 | Cc1cccc(Nc2nc(-c3ccncc3)c(C(N)=O)s2)c1 |  | 19.5 |  | 
34 | Cc1cccc(Nc2nc(-c3ccncc3Cl)cs2)c1 |  | 2.95 |  | 
35 | Clc1ccc(Nc2nc(-c3ccncc3)cs2)cc1 |  | 38 |  | 
36 | CCc1cc(-c2csc(Nc3cccc(C)c3)n2)ccn1 |  | 6.46 |  | 
37 | CN(C)CCc1ccc(Nc2nc(-c3ccncc3)cs2)cc1 |  | 50.1 |  | 
38 | Cc1cccc(Nc2nc(-c3ccncc3-c3ccc(C(C)C)cc3)cs2)c1 | > 40 | 40.7 | > 40 | 
39 | Fc1ccccc1Nc1nc(-c2ccncc2)cs1 |  | 14.5 |  | 
40 | O=[N+]([O-])c1ccccc1Nc1nc(-c2ccncc2)cs1 |  | 40.7 |  | 
41 | Cc1cc(Nc2nc(-c3ccncc3)cs2)ccc1O |  | 70.8 |  | 
42 | Cc1cccc(N(C)c2nc(-c3ccncc3)cs2)c1 |  | 28.2 |  | 
43 | Cc1cccc(Nc2nc(-c3ccnc(Cl)c3)cs2)c1 |  | 2.24 |  | 
44 | Cc1ccc(Nc2nc(-c3ccncc3)cs2)cc1 |  | 2.51 |  | 
45 | COC(=O)C=CC(=O)c1sc(Nc2cccc(C)c2)nc1-c1ccncc1 |  | 2.51 |  | 
46 | Fc1cccc(Nc2nc(-c3ccncc3)cs2)c1 |  | 40.7 |  | 
47 | CC(C)(C)c1cccc(Nc2nc(-c3ccncc3)cs2)c1 |  | 60.3 |  | 
48 | Cc1cccc(Nc2nc(-c3ccncc3)c(CN(C)C)s2)c1 |  | 16.2 |  | 
49 | COc1cccc(Nc2nc(-c3ccncc3)cs2)c1 |  | 3.02 |  | 
50 | CC(C)c1cccc(Nc2nc(-c3ccncc3)cs2)c1 |  | 17.4 |  | 
51 | OCCc1ccc(Nc2nc(-c3ccncc3)cs2)cc1 |  | 5.01 |  | 
52 | Clc1ccc(Nc2nc(-c3ccncc3)cs2)cc1Cl |  | 13.8 |  | 

Row | SMILES | IC50 ([1]; read-out: IC50) [µM] | IC50 ([1]; read-out: pIC50 (converted)) [µM] | IC50 [2] [µM] | Ratio IC50 [3]
53 | Cc1sc(Nc2ccc3c(c2)CCC3)nc1-c1ccncc1 |  | 12 |  | 
54 | Cc1cccc(Nc2nc(-c3ccnc(C)c3)cs2)c1 |  | 28.8 |  | 
55 | CCc1cnccc1-c1csc(Nc2cccc(C)c2)n1 |  | 6.31 |  | 
56 | Clc1ccccc1Nc1nc(-c2ccncc2)cs1 |  | 28.2 |  | 
57 | Cc1cccc(Nc2nnc(-c3ccncc3)o2)c1 | > 40 | 40.7 | > 40 | 
58 | Cc1cc(C)cc(Nc2nc(-c3ccncc3)cs2)c1 |  | 4.57 |  | 
59 | Cc1cccc(Nc2nc(-c3ccncc3)c(CCCO)s2)c1 |  | 3.63 |  | 
60 | C#Cc1cnccc1-c1csc(Nc2cccc(C)c2)n1 |  | 1.38 |  | 
61 | FC(F)(F)c1ccccc1Nc1nc(-c2ccncc2)cs1 |  | 40.7 |  | 
62 | Cc1ccc(Nc2nc(-c3ccncc3)cs2)cc1O |  | 12 |  | 
63 | COc1ccccc1Nc1nc(-c2ccncc2)cs1 |  | 33.9 |  | 
64 | OCc1sc(Nc2ccccc2)nc1-c1ccncc1 |  | 30.2 |  | 
65 | Cc1cccc(Nc2nnc(-c3ccncc3)n2C)c1 | > 40 | 40.7 | > 40 | 
66 | Cc1cccc(Nc2nc(-c3ccnc(CCCO)c3)cs2)c1 |  | 5.25 |  | 
67 | Oc1ccccc1Nc1nc(-c2ccncc2)cs1 |  | 12.9 |  | 
68 | Cc1cccc(Nc2nc(-c3ccncc3)c[nH]2)c1 | > 40 | 40.7 | > 40 | 
69 | Cc1cccc(Nc2nc(-c3ccnc(Br)c3)cs2)c1 |  | 2.04 |  | 
70 | FC(F)(F)c1ccc(Nc2nc(-c3ccncc3)cs2)cc1 |  | 40.7 |  | 
71 | Cc1cccc(Nc2nc(-c3ccncc3)c(C(=O)N(C)C)s2)c1 |  | 16.2 |  | 
72 | Cc1cccc(Nc2nc(-c3ccncc3C#CCCCO)cs2)c1 | 6.3 | 6.3 | 0.3 | 
73 | Cc1cccc(Nc2nc(-c3ccncc3C)cs2)c1 |  | 5.25 |  | 
74 | Cc1cccc(Nc2nc(-c3ccncc3-c3ccc(C(N)=O)cc3)cs2)c1 | 4.1 | 4.17 | 1.6 | 
75 | Cc1cccc(Nc2nc(-c3ccncc3CCCO)cs2)c1 |  | 6.92 |  | 
76 | Cc1ccc(Nc2nc(-c3ccncc3)cs2)cc1C |  | 6.61 |  | 
77 | Cc1cccc(Nc2nc(-c3ccncc3)c(CN3CCOCC3)s2)c1 |  | 2.51 |  | 
